According to PubChem BioAssay AID1918935 (Molecular Pharmacology Branch, DTP, NCI, 2023):

System: 324938-238-R-J1-PDC complex spheroid viability
Test: Anticancer human tumor 324938-238-R-J1-PDC patient-derived bladder carcinoma cell line growth inhibition
Conditions: for IC50: curve of first compound; for viability, T/C: stronger effect = lower value
Summary of the method: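 Drug combinations with the LSD1 inhibitor iadademstat tested on tumor cells co-cultured as spheroids with endothelial cells and mesenchymal stem cells. Concentrations descended in half-log increments from clinical Cmax or 10 microM.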

[1] = second compound 0.1 µM, first compound 0.000949 µM
[2] = second compound 0.1 µM, first compound 0.003 µM
[3] = second compound 0.1 µM, first compound 0.00949 µM
[4] = second compound 0.1 µM, first compound 0.03 µM
[5] = second compound 0.1 µM, first compound 0.0949 µM
[6] = second compound 0.1 µM, first compound 0.3 µM
[7] = second compound 0.316 µM, first compound 0.000949 µM
[8] = second compound 0.316 µM, first compound 0.003 µM
[9] = second compound 0.316 µM, first compound 0.00949 µM
[10] = second compound 0.316 µM, first compound 0.03 µM
[11] = second compound 0.316 µM, first compound 0.0949 µM
[12] = second compound 0.316 µM, first compound 0.3 µM
[13] = second compound 1 µM, first compound 0.000949 µM
[14] = second compound 1 µM, first compound 0.003 µM
[15] = second compound 1 µM, first compound 0.00949 µM
[16] = second compound 1 µM, first compound 0.03 µM
[17] = second compound 1 µM, first compound 0.0949 µM
[18] = second compound 1 µM, first compound 0.3 µM
[19] = second compound 3.16 µM, first compound 0.000949 µM
[20] = second compound 3.16 µM, first compound 0.003 µM
[21] = second compound 3.16 µM, first compound 0.00949 µM
[22] = second compound 3.16 µM, first compound 0.03 µM
[23] = second compound 3.16 µM, first compound 0.0949 µM
[24] = second compound 3.16 µM, first compound 0.3 µM
[25] = second compound 10 µM, first compound 0.000949 µM
[26] = second compound 10 µM, first compound 0.003 µM
[27] = second compound 10 µM, first compound 0.00949 µM
[28] = second compound 10 µM, first compound 0.03 µM
[29] = second compound 10 µM, first compound 0.0949 µM
[30] = second compound 10 µM, first compound 0.3 µM
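Also: spheroids also contain HUVEC and human MSCs and agents combined with iadademstat; spheroids exposed to agents for 7 days before readout.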

CCc1c2c(nc3ccc(O)cc13)-c1cc3c(c(=O)n1C2)COC(=O)[C@]3(O)CC + NC1CCC(NC2CC2c2ccccc2)CC1
IC50 (second compound 0.1 µM): < 0.949 nM
IC50 (second compound 0.316 µM): < 0.949 nM
IC50 (second compound 1 µM): < 0.949 nM
IC50 (second compound 3.16 µM): < 0.949 nM
IC50 (second compound 10 µM): < 0.949 nM
viability, T/C [1]: 8.91%
viability, T/C [2]: 8.28%
viability, T/C [3]: 5.05%
viability, T/C [4]: 2.05%
viability, T/C [5]: 0.06%
viability, T/C [6]: 0.13%
viability, T/C [7]: 7.86%
viability, T/C [8]: 10.2%
viability, T/C [9]: 6.24%
viability, T/C [10]: 2.68%
viability, T/C [11]: 0.06%
viability, T/C [12]: 0.11%
viability, T/C [13]: 8.46%
viability, T/C [14]: 8.97%
viability, T/C [15]: 6.82%
viability, T/C [16]: 2.81%
viability, T/C [17]: 0.06%
viability, T/C [18]: 0.1%
viability, T/C [19]: 9.74%
viability, T/C [20]: 9.76%
viability, T/C [21]: 7.3%
viability, T/C [22]: 2.95%
viability, T/C [23]: 0.08%
viability, T/C [24]: 0.11%
viability, T/C [25]: 9.49%
viability, T/C [26]: 9.84%
viability, T/C [27]: 8.1%
viability, T/C [28]: 2.75%
viability, T/C [29]: 0.08%
viability, T/C [30]: 0.13%

Nc1ccn(C2OC(CO)C(O)C2(F)F)c(=O)n1 (stereo not given) + NC1CCC(NC2CC2c2ccccc2)CC1
IC50 (second compound 0.1 µM): < 0.949 nM
IC50 (second compound 0.316 µM): < 0.949 nM
IC50 (second compound 1 µM): < 0.949 nM
IC50 (second compound 3.16 µM): < 0.949 nM
IC50 (second compound 10 µM): < 0.949 nM
viability, T/C [1]: 7.42%
viability, T/C [2]: 7.71%
viability, T/C [3]: 7.38%
viability, T/C [4]: 6.53%
viability, T/C [5]: 5.05%
viability, T/C [6]: 5.23%
viability, T/C [7]: 10.3%
viability, T/C [8]: 7.95%
viability, T/C [9]: 6.91%
viability, T/C [10]: 7.37%
viability, T/C [11]: 5.53%
viability, T/C [12]: 5.05%
viability, T/C [13]: 9.63%
viability, T/C [14]: 9.08%
viability, T/C [15]: 8.5%
viability, T/C [16]: 7.08%
viability, T/C [17]: 5.53%
viability, T/C [18]: 5.33%
viability, T/C [19]: 10.8%
viability, T/C [20]: 8.82%
viability, T/C [21]: 9.28%
viability, T/C [22]: 7.53%
viability, T/C [23]: 5.27%
viability, T/C [24]: 5.32%
viability, T/C [25]: 11.8%
viability, T/C [26]: 9.1%
viability, T/C [27]: 9.36%
viability, T/C [28]: 8.14%
viability, T/C [29]: 4.93%
viability, T/C [30]: 5.8%
